Data from PubChem BioAssay (NCI).
Several values for one entry are separate records, joined by “and”; a condition that tells them apart may be missing. Equal values may be shown once.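 Protocol summary: plate cells (96-well), add compound at 5 concentrations, incubate 48 h, interpolate endpoints linearly. At the GI50, growth is halved. Definition used: TGI = concentration required for complete inhibition of growth.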

Key:
Assay in all cases: NCI tumour cell line growth inhibition, 48 h
HOP-92 NSCLC = test system: HOP-92 NSCLC
NCI-H226 lung = test system: NCI-H226 lung
LOX IMVI melanoma = test system: LOX IMVI melanoma
SW-620 colon = test system: SW-620 colon
A549 NSCLC = test system: A549 NSCLC
OVCAR-3 ovarian = test system: OVCAR-3 ovarian
MOLT-4 leukemia = test system: MOLT-4 leukemia
HS 578T breast = test system: HS 578T breast
NCI-H460 lung = test system: NCI-H460 lung
SNB-19 CNS = test system: SNB-19 CNS

| Compound | GI50 (HOP-92 NSCLC) | TGI (HOP-92 NSCLC) | GI50 (NCI-H226 lung) | TGI (NCI-H226 lung) | GI50 (LOX IMVI melanoma) | TGI (LOX IMVI melanoma) | GI50 (SW-620 colon) | TGI (SW-620 colon) | GI50 (A549 NSCLC) | TGI (A549 NSCLC) | GI50 (OVCAR-3 ovarian) | TGI (OVCAR-3 ovarian) | GI50 (MOLT-4 leukemia) | TGI (MOLT-4 leukemia) | GI50 (HS 578T breast) | TGI (HS 578T breast) | GI50 (NCI-H460 lung) | TGI (NCI-H460 lung) | GI50 (SNB-19 CNS) | TGI (SNB-19 CNS) |
| --- | --- | --- | --- | --- | --- | --- | --- | --- | --- | --- | --- | --- | --- | --- | --- | --- | --- | --- | --- | --- |
| Nc1nc(Nc2ccccc2)c2ncn(Cc3cc4c(cc3Br)OCO4)c2n1 | 0.0651 µM | 20.7 µM | 0.777 µM | 31.5 µM | 0.0563 µM | > 100 µM | 0.0471 µM | > 100 µM | 0.0491 µM | 11.5 µM | 0.0326 µM | 0.237 µM | 0.196 µM | > 100 µM | 0.075 µM | > 94.9 µM | 0.0304 µM | 17.6 µM | 0.0686 µM | 22.3 µM |
| Nc1nc(Br)nc2c1ncn2C1CC(O)C(CO)O1 (stereo unspecified) | 2.79 µM | > 100 µM | 25.2 µM | > 100 µM | 29.8 µM | > 100 µM | 16.5 µM | > 100 µM | 5.34 µM | > 100 µM | > 100 µM | > 100 µM | 0.408 µM | > 100 µM | > 93.3 µM | > 100 µM | 61 µM | > 100 µM |  | > 56.9 µM |
| CCN1C(=O)N(CC)C2C1NC(=S)N2/N=C/C=C/c1cccs1 (stereo unspecified) | 13.4 µM | > 100 µM | 2.06 µM | > 28.3 µM | 0.55 µM | > 100 µM | 0.355 µM | > 100 µM | 0.508 µM | > 100 µM | 0.241 µM | 0.715 µM | 0.62 µM | > 100 µM | 0.281 µM |  | 0.363 µM | > 100 µM | 0.508 µM | > 100 µM |
| O=C(Nc1ccc(Cl)cc1F)c1cc(Br)ccc1O | 0.183 µM | 0.67 µM | 1.16 µM | 4.11 µM | 0.769 µM | 4.92 µM | 1.46 µM | > 36.2 µM | 1.42 µM | > 100 µM | 0.604 µM | 14.2 µM | 2.34 µM | 7.87 µM | 0.521 µM | 4.08 µM | 0.653 µM | 18.3 µM | 0.508 µM | > 100 µM |
| OCCCCC#Cc1ccccc1C#Cc1cccc(O)c1 | 19.8 µM | 40.7 µM | 22 µM | 47.3 µM | 16.7 µM | 30.9 µM | 17.5 µM | 33.3 µM | 15.7 µM | 32.2 µM | 20 µM | 44.1 µM | 18 µM | 40.7 µM | 31.2 µM | 94.7 µM | 18.5 µM | 40.7 µM | 15.5 µM | 32.8 µM |
| CN(C)c1ccc2nc3ccc(=O)cc-3sc2c1 | 1.46 µM | 29.5 µM | 7.59 µM | > 85.1 µM | 0.633 µM | > 63.8 µM | 1.36 µM | > 100 µM | 0.312 µM | 3.02 µM | 0.598 µM | > 28.1 µM | 1.4 µM | 26 µM | 7.12 µM | > 100 µM | 1.55 µM | 15.7 µM | 2.63 µM | > 100 µM |
| CN1CCc2c(Sc3ccc(C(=O)NO)cc3)c3ccccc3n2C1 | 2 µM | 6.88 µM | 2.75 µM | 14.9 µM | 1.64 µM | 3.57 µM | 1.92 µM | 5.22 µM | 3.29 µM | 12.9 µM | 2.16 µM | 6.74 µM | 2.53 µM | 7.01 µM | 2.64 µM | 27 µM | 2.34 µM | 7.73 µM | 2.12 µM | 6.79 µM |
| O=C(Nc1cccc(Cl)c1)c1cc2ccccc2cc1O | 0.41 µM and 0.306 µM | 3.66 µM and 0.973 µM | 4.65 µM and 2.68 µM | > 100 µM | 3.73 µM and 1.75 µM | > 100 µM | 3.14 µM and 3.1 µM | > 100 µM | 3.63 µM and 3.31 µM | > 100 µM | 1.43 µM | > 100 µM | 4.07 µM and 4.04 µM | > 100 µM | 2.12 µM and 3.42 µM |  | 2.47 µM and 2.48 µM | > 100 µM | 2.94 µM and 2.37 µM | > 100 µM |
| O=C(O)c1c(-c2nccc3ccccc23)[nH]c(-c2ccccc2)c1S(=O)(=O)O |  | > 100 µM |  | > 100 µM |  | > 100 µM |  | > 100 µM |  | > 100 µM |  | > 100 µM |  | > 100 µM |  | > 100 µM |  | > 100 µM |  | > 100 µM |
| O=C(O)c1ccccc1-c1ccccc1C(=O)Nc1ccc2c(c1)Cc1cc(F)ccc1-2 |  | > 100 µM |  | > 100 µM |  | 77.7 µM |  | > 100 µM |  | 85.9 µM |  | 45.6 µM |  | > 100 µM |  | > 100 µM |  | 68.2 µM |  | > 100 µM |
| O=C1/C(=C\c2cccn2Cc2ccccc2)c2ccccc2N1c1c(Cl)cccc1Cl | 1.52 µM | 28.8 µM | 14.9 µM | > 100 µM | > 100 µM | > 100 µM | > 100 µM | > 100 µM | 8.32 µM | > 100 µM | 1.32 µM | > 48.7 µM | > 100 µM | > 100 µM | > 100 µM | > 100 µM | 4.43 µM | > 100 µM | > 100 µM | > 100 µM |
| COc1cc2c(cc1OC)C13CCN4CC5=CCOC6CC(=O)N2C1C6C5CC43O (stereo unspecified) |  | > 100 µM |  | > 100 µM |  | > 100 µM |  | > 100 µM |  | > 100 µM |  | > 100 µM |  | > 100 µM |  | > 100 µM |  | > 100 µM |  | > 100 µM |
| CCN(CC)CCNCC(=O)Oc1ccc(/C=C/C(=O)CC(=O)/C=C/c2ccc(OC(=O)CNCCN(CC)CC)c(OC)c2)cc1OC | 3.93 µM | 33.1 µM | 6.97 µM | 22.1 µM | 2.13 µM | 4.71 µM | 3.02 µM | 9.93 µM | 6.73 µM | 39.8 µM | 4.11 µM | > 100 µM | 5.14 µM | > 100 µM | 3.59 µM | 26.4 µM | 3.41 µM | 22.2 µM | 4.94 µM | 20.2 µM |
| Fc1ccc(Nc2cc(-n3nnc4ccccc43)nc3ccccc23)cc1 | 14.4 µM | 34 µM | 19 µM | > 69 µM | 37.7 µM | > 100 µM | > 100 µM | > 100 µM | 64.4 µM | > 100 µM | 28.4 µM | > 100 µM | > 100 µM | > 100 µM | 18.2 µM | > 68.7 µM | 26.2 µM | > 100 µM |  | > 100 µM |
